Assay [1] deals with T1, Sodium-dependent dopamine transporter (Rattus norvegicus, UniProt P23977). Description: Inhibition of high affinity uptake of [3H]dopamine into striatal nerve endings (synaptosomes). In kind it is subcellular, Brain.
In assay [2] the target is T1, Sodium-dependent dopamine transporter. The assay is described as follows: Binding affinity towards dopamine transporter using [3H]- mazindol as radioligand in rat striatal membranes. In kind it is cell membranes, Striatum, Membrane.

SMILES strings stand for the structures.

T1 sequence (P23977 whole entry): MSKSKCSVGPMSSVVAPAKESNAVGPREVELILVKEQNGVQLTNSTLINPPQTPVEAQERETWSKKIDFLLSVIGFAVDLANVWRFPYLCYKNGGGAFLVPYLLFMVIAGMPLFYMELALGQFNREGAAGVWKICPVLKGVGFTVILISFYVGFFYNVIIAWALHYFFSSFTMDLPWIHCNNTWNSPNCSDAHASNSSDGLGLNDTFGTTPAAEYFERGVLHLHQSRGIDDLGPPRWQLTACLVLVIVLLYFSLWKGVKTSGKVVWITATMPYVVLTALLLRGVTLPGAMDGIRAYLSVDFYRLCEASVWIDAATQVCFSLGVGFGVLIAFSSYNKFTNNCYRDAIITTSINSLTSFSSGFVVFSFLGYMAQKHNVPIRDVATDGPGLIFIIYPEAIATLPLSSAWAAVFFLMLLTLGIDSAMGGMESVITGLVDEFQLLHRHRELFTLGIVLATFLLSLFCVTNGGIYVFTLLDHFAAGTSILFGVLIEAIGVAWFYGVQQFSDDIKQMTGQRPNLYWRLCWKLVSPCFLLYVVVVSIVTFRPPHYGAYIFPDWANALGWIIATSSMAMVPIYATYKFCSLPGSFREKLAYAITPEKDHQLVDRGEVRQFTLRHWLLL

The term Ki denotes a measure of affinity in units of concentration, obtained from inhibition or displacement. For the compound `COC(=O)[C@H]1C2CCC(C[C@@H]1OC(=O)c1ccccc1)O2` (stereo in doubt; (-)), the Ki in assay [1] stood at 6 µM; in assay [2], 4.7 µM.

As for `COC(=O)[C@@H]1C2CCC(C[C@@H]1OC(=O)c1ccccc1)O2` (stereo in doubt; (-)), the Ki amounted to 8.5 µM in assay [1] and 4.2 µM in assay [2].

As to `COC(=O)[C@H]1C2CCC(C[C@@H]1OC(=O)c1ccccc1)O2` (stereo in doubt; (+)), the results for the Ki in assay [1] and in assay [2] were 47.7 µM and 29.4 µM, respectively.

`COC(=O)[C@@H]1C2CCC(C[C@@H]1OC(=O)c1ccccc1)O2` (stereo in doubt; (+)): the inhibition constant (Ki) was 9.4 µM in assay [1] and 3.1 µM in assay [2].

For `COC(=O)[C@H]1C2CCC(C[C@H]1OC(=O)c1ccccc1)O2` (some centres not stated), the inhibition constant Ki worked out at 35 µM in assay [1] and 38 µM in assay [2].

Turning to `COC(=O)[C@@H]1C2CCC(C[C@H]1OC(=O)c1ccccc1)O2` (some centres not stated), the Ki in assay [1] stood at 23 µM; in assay [2], 34 µM.

Values taken from ChEMBL document CHEMBL1131772, “Synthesis of 8-Oxa analogues of norcocaine endowed with interesting cocaine-like activity” (Bioorg Med Chem Lett, 1999).
